In US7084141B2, “Inhibitors of macrophase migration inhibitory factor and methods for identifying the same” (Avanir Pharmaceuticals, priority 2001, dated 2006):

Target: T1, MIF (Homo sapiens, UniProt P14174)
T1 sequence (P14174 2-115 limits assumed): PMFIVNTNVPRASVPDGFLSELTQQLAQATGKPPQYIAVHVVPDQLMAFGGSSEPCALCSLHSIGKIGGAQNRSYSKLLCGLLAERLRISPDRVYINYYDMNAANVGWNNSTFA
Test: Immunoprecipitation of MIF from conditioned media of LPS treated THP-1 cells with monoclonal or polyclonal antibody
Type: cell-based
Settings: 10 μM compound; LPS 10 μg/ml; not observed with polyclonal antibody
Method: Cell culture experiments were designed to characterize the activity of candidate compounds, MIF expression, trafficking, and export. Cell and conditioned medium fractions are prepared for immunoprecipitation essentially as described previously (Florkiewicz et al., Growth Factors 4:265–275, 1991; Florkiewicz et al., Ann. N.Y. Acad. Sci. 638:109–126) except that 400 μl of lysis buffer (1% NP-40, 0.5% deoxycholate, 20 mM Tris pH 7.5, 5 mM EDTA, 2 mM EGTA, 0.01 mM phenylmethylsufonyl fluoride, 10 ng/ml aprotinin, 10 ng/ml leupeptin, 10 ng/ml peptstatin) is added to the medium fraction after clarification by centrifugation in a microfuge for 15 minutes. Cell or medium fractions are incubated with monoclonal or polyclonal antibodies to MIF and GammaBind™ G Sepharose® (Pharmacia LKB Biotechnology, Uppsala, Sweden) was added for an additional 30 minutes incubation. Immune complexes are sedimented by microfuge centrifugation, washed three times with lysis buffer, and four times with ice cold immunoprecipitation wash buffer (0.15M NaCl, 0.01 M Na-phosphate pH 7.2, 1% deoxycholate, 1% NP-40, 0.1% sodium dodecyl sulfate). Immune complexes are dissociated directly in SDS gel sample buffer 125 mM Tris, pH 6.8, 4% SDS, 10% glycerol, 0.004% bromphenol blue, 2 mM EGTA, and separated by 12% SDS-PAGE. The gel is processed for fluorography, dried, and exposed to X-ray film at −70° C. […]

With `Cn1c(=O)c([N+](=O)[O-])c(N2CCN(C(=O)c3ccco3)CC2)c2ccccc21` [compound 7e] the “detectable MIF in conditioned media using the monoclonal antibody” value was “significant loss of detectable MIF”.
